Assay results published in PubChem BioAssay AID248 (DTP/NCI, 2004).
Where “and” joins values, the source holds several entries; their conditions need not be identical. Identical values can stand only once. Toxic doses and inconclusive results are not listed. Rule as the data show it: active = T/C of 150% or more; inactive = T/C below 125%.

Test system: L1210 leukemia ip in BDF1 mice, survival T/C
Assay: NCI In Vivo Anticancer Drug Screen. Data for tumor model L1210 Leukemia (intraperitoneal) in B6D2F1 (BDF1) mice
Details: endpoint: mean survival time, higher = longer survival
How it was run: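 Transplantable tumor model; survival measured in treated vs vehicle control mice. Value = treated/control.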

[1] = dose: 100.0 mg/kg/injection, schedule: Q01DX009 (ip), vehicle: saline with Tween-80
[2] = dose: 200.0 mg/kg/injection, schedule: Q01DX009 (ip), vehicle: saline with Tween-80
[3] = dose: 400.0 mg/kg/injection, schedule: Q01DX009 (ip), vehicle: saline with Tween-80
[4] = dose: 100.0 mg/kg/injection, schedule: Q01DX001 (ip), vehicle: saline
[5] = dose: 200.0 mg/kg/injection, schedule: Q01DX001 (ip), vehicle: saline
[6] = dose: 100.0 mg/kg/injection, schedule: Q04DX003 (ip), vehicle: saline sonified
[7] = dose: 200.0 mg/kg/injection, schedule: Q04DX003 (ip), vehicle: saline sonified
[8] = dose: 400.0 mg/kg/injection, schedule: Q04DX003 (ip), vehicle: saline sonified
[9] = dose: 100.0 mg/kg/injection, schedule: Q01DX009 (ip), vehicle: Klucel (hydroxypropylcellulose) (HPC)
[10] = dose: 100.0 mg/kg/injection, schedule: Q04DX003 (ip), vehicle: Klucel (hydroxypropylcellulose) (HPC)
[11] = dose: 200.0 mg/kg/injection, schedule: Q01DX009 (ip), vehicle: Klucel (hydroxypropylcellulose) (HPC)
[12] = dose: 200.0 mg/kg/injection, schedule: Q04DX003 (ip), vehicle: Klucel (hydroxypropylcellulose) (HPC)
[13] = dose: 400.0 mg/kg/injection, schedule: Q01DX009 (ip), vehicle: Klucel (hydroxypropylcellulose) (HPC)
[14] = dose: 400.0 mg/kg/injection, schedule: Q04DX003 (ip), vehicle: Klucel (hydroxypropylcellulose) (HPC)
[15] = dose: 25.0 mg/kg/injection, schedule: Q04DX003 (ip), vehicle: saline with Tween-80
[16] = dose: 50.0 mg/kg/injection, schedule: Q04DX003 (ip), vehicle: saline with Tween-80
[17] = dose: 100.0 mg/kg/injection, schedule: Q04DX003 (ip), vehicle: saline with Tween-80
[18] = dose: 100.0 mg/kg/injection, schedule: Q04DX002 (ip), vehicle: saline with Tween-80
[19] = dose: 200.0 mg/kg/injection, schedule: Q04DX002 (ip), vehicle: saline with Tween-80
[20] = dose: 400.0 mg/kg/injection, schedule: Q04DX002 (ip), vehicle: saline with Tween-80
[21] = dose: 200.0 mg/kg/injection, schedule: Q04DX003 (ip), vehicle: saline with Tween-80
[22] = dose: 400.0 mg/kg/injection, schedule: Q04DX003 (ip), vehicle: saline with Tween-80
[23] = dose: 100.0 mg/kg/injection, schedule: Q01DX001 (ip), vehicle: carboxymethylcellulose (CMC)
[24] = dose: 200.0 mg/kg/injection, schedule: Q01DX001 (ip), vehicle: carboxymethylcellulose (CMC)
[25] = dose: 400.0 mg/kg/injection, schedule: Q01DX001 (ip), vehicle: carboxymethylcellulose (CMC)
[26] = dose: 25.0 mg/kg/injection, schedule: Q01DX009 (ip), vehicle: saline
[27] = dose: 100.0 mg/kg/injection, schedule: Q01DX009 (ip), vehicle: saline

Measured: T/C

CCCCCCCCOc1ccc(/C=N\N=C\c2ccc(OCCCCCCCC)cc2)cc1
inactive: [1] 105 % of control | [2] 91 % of control | [3] 92 % of control

CCCCOc1ccc(OC(=O)Nc2cccc(C(F)(F)F)c2)cc1
inactive: [1] 96 % of control | [2] 94 % of control | [3] 94 % of control

CCN(CC)c1cc(C)c2cc(Cc3ccc4nc(N(CC)CC)cc(C)c4c3)ccc2n1
inactive: [4] 90 % of control | [5] 96 % of control | dose: 400.0 mg/kg/injection, schedule: Q01DX001 (ip), vehicle: saline 90 % of control

Cc1ccc(S(=O)(=O)OCC2OC(n3cnc4c(NC=O)ncnc43)C(OC=O)C2OC=O)cc1 (stereo not given)
inactive: dose: 50.0 mg/kg/injection, schedule: Q01DX009 (ip), vehicle: gum acacia 115 % of control | dose: 100.0 mg/kg/injection, schedule: Q01DX005 (ip), vehicle: saline 105 % of control | dose: 100.0 mg/kg/injection, schedule: Q01DX009 (ip), vehicle: gum acacia 104 % of control | dose: 200.0 mg/kg/injection, schedule: Q01DX009 (ip), vehicle: gum acacia 100 % of control

CC(C)(C)c1ccc(C(c2ccc(C(C)(C)C)cc2)C(Cl)(Cl)Cl)cc1
inactive: [1] 88 % of control | [6] 98 % of control | [2] 94 % of control | [7] 95 % of control | [3] 92 % of control | [8] 97 % of control

Cc1nc(C)c([N+](=O)[O-])s1
inactive: [9] 93 % of control | [10] 100 % of control | [11] 94 % of control | [12] 96 % of control | [13] 101 % of control | [14] 100 % of control

CC(C)OCCSP(SCCOC(C)C)SCCOC(C)C
inactive: [15] 96 % of control | [16] 107 % of control | [17] 96 % of control

OC1CCCCC1Sc1ccccc1 (stereo not given)
inactive: [18] 117 % of control | [19] 111 % of control | [20] 105 % of control

COc1ccccc1N1C(=O)CSC1=S
inactive: [1] 102 % of control | [2] 106 % of control | [3] 100 % of control

Nc1nc(Cl)c(CCCCc2ccccc2)c(C(=O)O)n1
inactive: dose: 100.0 mg/kg/injection, schedule: Q01DX001 (ip), vehicle: Klucel (hydroxypropylcellulose) (HPC) 93 % of control | dose: 200.0 mg/kg/injection, schedule: Q01DX001 (ip), vehicle: Klucel (hydroxypropylcellulose) (HPC) 91 % of control | dose: 400.0 mg/kg/injection, schedule: Q01DX001 (ip), vehicle: Klucel (hydroxypropylcellulose) (HPC) 101 % of control

CCOC(=O)c1cnc(SC)nc1Nc1cccc(C)c1
inactive: [17] 86 % of control | [21] 91 % of control | [22] 86 % of control

C(=Nc1ccc2c(c1)Cc1ccccc1-2)c1ccnc2ccccc12
inactive: [9] 97 % of control | [10] 92 % of control | [11] 100 % of control | [12] 90 % of control | [13] 97 % of control | [14] 94 % of control

CCCN(CCC)C(=O)/C(=C\c1ccccc1)NC(=O)c1ccccc1
inactive: [23] 93 % of control | [24] 93 % of control | [25] 98 % of control

C1CCCCCC(NC2=NCCO2)CCCCC1
inactive: [15] 97 % of control | [16] 102 % of control | [17] 88 % of control

CCCN(CCC)S(=O)(=O)CC
inactive: [18] 99 % of control | [19] 92 % of control | [20] 99 % of control

NNC(=O)C(CSC(c1ccccc1)c1ccccc1)NC(=O)C(CSC(c1ccccc1)(c1ccccc1)c1ccccc1)NC(=O)OCc1ccccc1 (stereo not given)
inactive: [9] 97 % of control | [11] 97 % of control | [13] 94 % of control

O=C1OCCS1
inactive: [26] 107 % of control | dose: 50.0 mg/kg/injection, schedule: Q01DX009 (ip), vehicle: saline 104 % of control | [27] 101 % of control and 105 % of control

CCN(CC)CCCOC(=O)C(c1ccccc1)C1CCCCC1 (stereo not given)
inactive: dose: 6.25 mg/kg/injection, schedule: Q01DX009 (ip), vehicle: saline 97 % of control | dose: 6.25 mg/kg/injection, schedule: Q04DX003 (ip), vehicle: saline 100 % of control | dose: 12.5 mg/kg/injection, schedule: Q01DX009 (ip), vehicle: saline 94 % of control | dose: 12.5 mg/kg/injection, schedule: Q04DX003 (ip), vehicle: saline 102 % of control | [26] 94 % of control | dose: 25.0 mg/kg/injection, schedule: Q04DX003 (ip), vehicle: saline 102 % of control

Nc1ccc(OCCCCNC(=O)c2ccc(S(=O)(=O)F)cc2)c(Cl)c1
inactive: [1] 98 % of control | [17] 97 % of control | [2] 102 % of control | [21] 97 % of control | [22] 97 % of control

N#Cc1ccc(N2CCCc3ccccc32)c([N+](=O)[O-])c1
inactive: [10] 107 % of control | [12] 92 % of control | [14] 91 % of control

[O-][P+](=NC12CC3CC(CC(C3)C1)C2)c1ccccc1 (stereo not given)
inactive: dose: 75.0 mg/kg/injection, schedule: Q04DX003 (ip), vehicle: Klucel (hydroxypropylcellulose) (HPC) 99 % of control | dose: 150.0 mg/kg/injection, schedule: Q04DX003 (ip), vehicle: Klucel (hydroxypropylcellulose) (HPC) 101 % of control | dose: 300.0 mg/kg/injection, schedule: Q04DX003 (ip), vehicle: Klucel (hydroxypropylcellulose) (HPC) 100 % of control

c1ccc(COB(OCc2ccccc2)OCc2ccccc2)cc1
inactive: [27] 110 % of control | dose: 100.0 mg/kg/injection, schedule: Q04DX003 (ip), vehicle: saline 105 % of control | dose: 200.0 mg/kg/injection, schedule: Q01DX009 (ip), vehicle: saline 104 % of control | dose: 200.0 mg/kg/injection, schedule: Q04DX003 (ip), vehicle: saline 102 % of control | dose: 400.0 mg/kg/injection, schedule: Q01DX009 (ip), vehicle: saline 96 % of control | dose: 400.0 mg/kg/injection, schedule: Q04DX003 (ip), vehicle: saline 96 % of control

O=C1Nc2ccccc2C1(O)c1ccccc1 (stereo not given)
inactive: dose: 75.0 mg/kg/injection, schedule: Q01DX001 (ip), vehicle: saline 103 % of control | dose: 150.0 mg/kg/injection, schedule: Q01DX001 (ip), vehicle: saline 101 % of control | dose: 300.0 mg/kg/injection, schedule: Q01DX001 (ip), vehicle: saline 92 % of control

CCCCN(C(=O)C(F)(F)F)C(C)(C)C(SSSC(c1ccc(Cl)cc1)C(C)(C)N(CCCC)C(=O)C(F)(F)F)c1ccc(Cl)cc1 (stereo not given)
inactive: dose: 100.0 mg/kg/injection, schedule: Q01DX009 (ip), vehicle: saline sonified 103 % of control | [6] 96 % of control | dose: 200.0 mg/kg/injection, schedule: Q01DX009 (ip), vehicle: saline sonified 100 % of control | [7] 94 % of control | dose: 400.0 mg/kg/injection, schedule: Q01DX009 (ip), vehicle: saline sonified 96 % of control | [8] 97 % of control

O=C1c2cc(-c3ccccc3)c(-c3ccccc3)cc2C(c2ccccc2)(c2ccccc2)C1Br (stereo not given)
inactive: [17] 94 % of control | [21] 91 % of control | [22] 93 % of control

CCC(C)C(C)C(C)=O (stereo not given)
inactive: dose: 50.0 mg/kg/injection, schedule: Q01DX001 (ip), vehicle: saline 110 % of control | [4] 101 % of control | [5] 93 % of control

O=C(CCC(=O)c1cccc([N+](=O)[O-])c1)NNc1ccc([N+](=O)[O-])cc1[N+](=O)[O-]
inactive: [1] 95 % of control | [2] 105 % of control | [3] 92 % of control

CC(C)=CCC/C(C)=C/C#N
inactive: [23] 100 % of control | [24] 111 % of control | [25] 94 % of control
